Assay results as given in PMC9007462 (Journal of Medicinal Chemistry, 2022).

Tests used:
[1] = target: T1, Human ALDH1A3 (Homo sapiens, UniProt P47895); test: ALDH1A3 inhibition, IC50, Ki and type of inhibition; assay type: biochemical; settings: for IC50: 6 μM hexanal as substrate
T1 construct: made in house
T1 sequence (P47895 1-512): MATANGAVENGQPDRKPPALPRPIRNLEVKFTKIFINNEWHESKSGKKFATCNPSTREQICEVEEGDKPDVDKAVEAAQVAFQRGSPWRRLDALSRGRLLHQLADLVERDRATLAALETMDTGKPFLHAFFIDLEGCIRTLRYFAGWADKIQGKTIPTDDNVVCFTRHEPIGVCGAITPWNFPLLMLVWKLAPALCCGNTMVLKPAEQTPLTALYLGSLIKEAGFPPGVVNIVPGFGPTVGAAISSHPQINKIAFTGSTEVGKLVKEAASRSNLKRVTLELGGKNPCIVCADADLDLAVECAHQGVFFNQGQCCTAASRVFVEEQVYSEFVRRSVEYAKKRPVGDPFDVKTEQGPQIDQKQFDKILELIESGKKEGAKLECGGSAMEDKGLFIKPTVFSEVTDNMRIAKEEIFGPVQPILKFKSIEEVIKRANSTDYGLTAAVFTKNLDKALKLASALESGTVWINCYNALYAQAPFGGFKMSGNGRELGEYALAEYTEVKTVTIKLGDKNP

[2] = target: T2, Human ALDH3A1 (Homo sapiens, UniProt P30838); test: DEAB analogues as substrates of ALDH3A1 (substrate activity and kinetics); assay type: biochemical; settings: for ALDH3A1 substrate activity: 10 μM compound as substrate, relative to activity with 10 μM 4-NBA (Figure S2)
T2 construct: made in house
T2 sequence (P30838 1-453): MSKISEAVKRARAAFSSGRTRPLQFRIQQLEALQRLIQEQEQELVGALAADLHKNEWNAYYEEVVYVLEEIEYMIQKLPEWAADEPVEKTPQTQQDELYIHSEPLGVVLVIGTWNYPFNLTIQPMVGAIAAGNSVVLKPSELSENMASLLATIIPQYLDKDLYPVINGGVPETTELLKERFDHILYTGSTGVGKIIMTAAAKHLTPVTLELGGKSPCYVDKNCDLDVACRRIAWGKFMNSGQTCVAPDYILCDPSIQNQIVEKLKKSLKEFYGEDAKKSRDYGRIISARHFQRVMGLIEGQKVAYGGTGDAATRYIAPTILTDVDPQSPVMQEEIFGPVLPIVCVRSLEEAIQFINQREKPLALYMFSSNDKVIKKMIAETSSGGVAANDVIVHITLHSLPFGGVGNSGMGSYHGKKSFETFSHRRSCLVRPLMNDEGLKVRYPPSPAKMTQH
Procedure: Human ALDH1A1, ALDH1A3, and ALDH3A1 were cloned and recombinantly expressed from the pET-30 Xa/LIC vector. Protein purification was achieved by affinity chromatography on a nickel-charged chelating Sepharose Fast Flow 5-mL column (His Trap column, Cytiva), which specifically binds the protein due to its N-terminal (His)6 tag, using an ÄKTA FPLC system (Cytiva), as previously described.[55] Enzymes including the His tag were stored at −80 °C in 20 mM Tris/HCl and 0.5 M NaCl, pH 8.0, until use. Reaction buffers were as follows: ALDH1A1 was assayed in 50 mM HEPES, 0.5 mM EDTA, and 0.5 mM DTT, pH 8.0; ALDH1A3 was assayed in 50 mM HEPES, 30 mM MgCl2, and 5 mM DTT, pH 8.0; and ALDH3A1 was assayed in 50 mM Tris–HCl and 5 mM DTT, pH 8.0. Activity under standard conditions was measured fluorimetrically at 25 °C using a Cary Eclipse (Varian) fluorimeter to follow the purification procedure and to check the enzyme concentration before each kinetic experiment. The fluorescence of NADH was characterized at 460 nm with excitation at 340 nm, and 5 μM NAD(P)H was added as an internal standard to obtain the absolute reaction rates.[55] Standard activity was measured at saturating concentrations of substrate using 30 μM hexanal (ALDH1A1), 250 μM hexanal (ALDH1A3), or 250 μM 4-NBA (ALDH3A1). NAD^+ was 500 μM for ALDH1A1 and ALDH1A3, and NADP^+ was 1 mM for ALDH3A1.
According to their structure with a carbonyl group, compounds were tested for their substrate properties against ALDH1A1, ALDH1A3, and ALDH3A1. […] Results are expressed as the percentage of activity at 10 μM versus the activity at 10 μM of their standard substrate (hexanal or 4-NBA). Values are expressed as the mean ± SE.
To calculate the Km value of compound 18 as a substrate for ALDH3A1, several concentrations of compound 18 were used. Experimental values were fitted to the adaptation of the Michaelis–Menten equation for substrate inhibition [drawing 1] and shown as the mean ± SE.

[3] = tested on: LNCaP; test: MTT chemosensitivity assay, LNCaP; assay type: cell-based, human; settings: Homo sapiens, LNCaP, 96 h exposure, ± SD, at least three independent experiments

Ksi as ALDH3A1 substrate ([2]; fit to substrate inhibition equation, mean ± SE)	Km ([2]; mean ± SE)	kcat as ALDH3A1 substrate ([2]; mean ± SE)	Structure (SMILES)	IC50 ([1]; mean ± SE)	ALDH3A1 substrate activity [2]	IC50 [3]	type of inhibition ALDH1A3 ([1]; hexanal as substrate)	Ki ([1]; hexanal as substrate, fit to competitive inhibition equation, mean ± SE)	fold difference in capacity to inhibit ALDH1A3, 14 vs 13 ([1]; ratio of IC50 values)
113 ± 25 µM	2.82 ± 0.35 µM	13.4 ± 0.7 min^–1	CCCN(CCC)c1ccc(C=O)cc1[N+](=O)[O-] [Compound 18, 4-(Dipropylamino)-3-Nitrobenzaldehyde]	106 ± 16 µM	4.21%	31 ± 6 µM			
			CCCN(CCC)c1ccc(C=O)cc1Br [Compound 14, 3-Bromo-4-(dipropylamino)benzaldehyde]	0.63 ± 0.02 µM	lower than 5%	25 ± 1 µM	competitive	0.46 ± 0.15 µM	approximately 17 fold
